Measured values reported in PMC9043826, “Dalpulapans A–E from the roots of Dalbergia stipulacea” (RSC Advances, 2021).

How the values were obtained:
Format in all cases: cell-based
[1] = system: A549 (lung cancer cells); assay: MTT cytotoxicity assay against A549 cells; conditions: Homo sapiens
Protocol: (§1) All isolated compounds, except 12, were evaluated for cytotoxicity against A549 (lung cancer cells), HeLa (cervical cancer cells) and Vero cells using the MTT assay.
(§2) MTT (3-(4,5-dimethylthiazol-2-yl)-2,5-diphenyltetrazolium bromide) assay was performed to evaluate the cytotoxic effect of the compounds. The procedure has been explained in a previous report.[14] In brief, all cells were cultured in RPMI 1640 medium supplemented with 10% fetal bovine serum, penicillin (100 U mL^−1) and streptomycin (100 μg mL^−1) (Gibco-BRL, USA) and incubated at 37 °C in a humidified atmosphere of 5% CO2. For preliminary testing, cells were exposed to the selected compounds at a concentration of 100 μg mL^−1 for 24, 48 and 72 hours. […] Control groups were treated with a solvent (a mixture of DMSO and ethanol; 1 : 1). After incubation, the medium was replaced with 110 μL of fresh medium containing MTT (0.5 mg mL^−1 in PBS) (Sigma Chemical Co., St. Louis, MO, USA) and incubated for 2 h. […] The absorbance of formazan was measured with a microplate reader (Bio-Rad Laboratories, USA) at the wavelength of 550 nm using 655 nm as a reference wavelength. […] The percentage of viable cells which corresponds to the production of formazan was calculated as previously described (Kumnerdkhonkaen et al. 2018).% Cell viability = [sample (A550 − A655)/control (A550 − A655)] × 100

[2] = system: Vero cells (kidney of African green monkey cells; normal cells); assay: MTT cytotoxicity assay against Vero (normal) cells; conditions: Chlorocebus sabaeus
Protocol: as §1, §2

[3] = system: HeLa (cervical cancer cells); assay: MTT cytotoxicity assay against HeLa cells; conditions: Homo sapiens
Protocol: as §1, §2

CC(C)=CCC/C(C)=C/Cc1c(O)ccc2c1OC[C@H]1c3cc4c(cc3O[C@@H]21)OCO4 [Compound 6, R,R-velucarpin A]
IC50 [1]: 14.6 ± 1.31 µM | IC50 [2]: 29.2 ± 1.16 µM | IC50 [3]: 10.9 ± 0.42 µM
